# Experimental data taken from patent US20040014047A1, “Antisense modulation of LIM domain kinase 1 expression” (Isis Pharmaceuticals Inc., priority 2002, published 2004).
# Strand notation (5' to 3'): a small letter for the sugar, then the base; units joined by * are phosphorothioate-linked, units joined directly phosphodiester-linked; [ ] holds rarer units or linkages, { } end groups; capitals alone tell only the bases. e = 2'-O-(2-methoxyethyl) (MOE); [5mC] = 5-methylcytosine; d = 2'-deoxy (DNA)
# System: human LIM domain kinase 1 mRNA
# Experiment: Antisense inhibition of human LIM domain kinase 1 mRNA levels, quantitative real-time PCR, A549 cells (screen)
# Format: cell-based
# Details: quantitative real-time PCR, averages from two experiments, screening concentration not given (50 nM to 300 nM used herein)
# Experimental: When cells reached 70% confluency, they were treated with oligonucleotide. […] Cells were harvested 16-24 hours after oligonucleotide treatment.
# Vacuum was applied for 1 minute.
# PCR reagents were obtained from Invitrogen Corporation, (Carlsbad, Calif.).
# Total RNA is quantified using RiboGreenTM RNA quantification reagent from Molecular Probes.
# Probes and primers to human LIM domain kinase 1 were designed to hybridize to a human LIM domain kinase 1 sequence, using published sequence information (GenBank accession number D26309.1, incorporated herein as SEQ ID NO:4). For human LIM domain kinase 1 the PCR primers were: forward primer: […] (SEQ ID NO: 5) reverse primer: […] (SEQ ID NO: 6) and the PCR probe was: FAM-[…]-TAMRA (SEQ ID NO: 7) where FAM is the fluorescent dye and TAMRA is the quencher dye.
# All cytidine residues are 5-methylcytidines. […] Data are averages from two experiments in which A549 cells were treated with the oligonucleotides of the present invention. […] If present, “N.D.” indicates “no data”.
row,Substance,% INHIB (inhibition of human LIM domain kinase 1 mRNA levels) [%]
1,206161 (eA*eA*e[5mC]*e[5mC]*eT*d[5mC]*dA*dT*dG*d[5mC]*dA*d[5mC]*dT*d[5mC]*dG*eA*e[5mC]*eG*eG*eG; antisense) [compound 206161],82
2,206162 (e[5mC]*eT*eG*e[5mC]*eT*dG*d[5mC]*dA*dG*d[5mC]*d[5mC]*dG*dT*dA*dT*eG*eA*eA*eA*eA; antisense) [compound 206162],74
3,206163 (eG*eT*e[5mC]*eA*eA*d[5mC]*d[5mC]*dT*d[5mC]*dA*dT*dG*d[5mC]*dA*d[5mC]*eT*e[5mC]*eG*eA*e[5mC]; antisense) [compound 206163],79
4,206164 (e[5mC]*eA*eG*eG*eT*dG*d[5mC]*dA*dA*d[5mC]*dA*dA*dA*dG*dT*eA*eG*e[5mC]*eG*eT; antisense) [compound 206164],75
5,206165 (e[5mC]*e[5mC]*e[5mC]*eT*e[5mC]*d[5mC]*dA*dG*dG*dT*dG*d[5mC]*dA*dA*d[5mC]*eA*eA*eA*eG*eT) [compound 206165],22
6,206166 (eT*eT*e[5mC]*eT*eT*d[5mC]*d[5mC]*d[5mC]*dT*d[5mC]*d[5mC]*dA*dG*dG*dT*eG*e[5mC]*eA*eA*e[5mC]; antisense) [compound 206166],70
7,206167 (eA*eT*eA*e[5mC]*eG*dT*dT*d[5mC]*dT*dT*d[5mC]*d[5mC]*d[5mC]*dT*d[5mC]*e[5mC]*eA*eG*eG*eT; antisense) [compound 206167],85
8,206168 (eT*e[5mC]*eT*e[5mC]*e[5mC]*d[5mC]*dA*dT*dA*d[5mC]*dG*dT*dT*d[5mC]*dT*eT*e[5mC]*e[5mC]*e[5mC]*eT; antisense) [compound 206168],36
9,206169 (e[5mC]*eT*eT*e[5mC]*e[5mC]*dT*d[5mC]*dT*d[5mC]*d[5mC]*d[5mC]*dA*dT*dA*d[5mC]*eG*eT*eT*e[5mC]*eT; antisense) [compound 206169],67
10,206170 (eG*e[5mC]*eA*eA*e[5mC]*dT*d[5mC]*dG*d[5mC]*dT*dT*d[5mC]*d[5mC]*dT*dT*e[5mC]*e[5mC]*eT*e[5mC]*eT; antisense) [compound 206170],43
11,206171 (eA*eG*eG*eG*e[5mC]*d[5mC]*dT*dG*dG*dA*dG*dG*dT*dA*d[5mC]*eT*eG*eG*e[5mC]*e[5mC]; antisense) [compound 206171],83
12,206172 (eT*e[5mC]*e[5mC]*eT*eT*d[5mC]*dT*dT*dG*d[5mC]*dA*dG*dA*dA*dG*eA*eG*e[5mC]*eT*eG; antisense) [compound 206172],76
13,206173 (eA*eG*eT*eA*eG*dT*d[5mC]*d[5mC]*dT*dT*d[5mC]*dT*dT*dG*d[5mC]*eA*eG*eA*eA*eG; antisense) [compound 206173],71
14,206174 (antisense eG*eG*e[5mC]*e[5mC]*e[5mC]*dA*dG*dT*dA*dG*dT*d[5mC]*d[5mC]*dT*dT*e[5mC]*eT*eT*eG*e[5mC]) [compound 206174],87
15,206175 (antisense eT*eA*eG*e[5mC]*eG*dG*dG*d[5mC]*d[5mC]*d[5mC]*dA*dG*dT*dA*dG*eT*e[5mC]*e[5mC]*eT*eT) [compound 206175],83
16,206176 (antisense e[5mC]*eG*e[5mC]*e[5mC]*eA*dT*dA*dG*d[5mC]*dG*dG*dG*d[5mC]*d[5mC]*d[5mC]*eA*eG*eT*eA*eG) [compound 206176],87
17,206177 (antisense eA*eG*e[5mC]*eT*eT*dG*dG*dA*dG*dT*dG*d[5mC]*dT*d[5mC]*d[5mC]*eA*e[5mC]*e[5mC]*eA*eG) [compound 206177],86
18,206178 (antisense eA*eG*eT*eA*e[5mC]*dA*dG*d[5mC]*dT*dT*dG*dG*dA*dG*dT*eG*e[5mC]*eT*e[5mC]*e[5mC]) [compound 206178],69
19,206179 (antisense eG*e[5mC]*eA*eG*eT*dG*d[5mC]*d[5mC]*d[5mC]*dG*d[5mC]*dA*dG*dT*dA*e[5mC]*eA*eG*e[5mC]*eT) [compound 206179],75
20,206180 (antisense eA*e[5mC]*eA*eT*e[5mC]*dT*dG*dG*dG*d[5mC]*dT*d[5mC]*dA*dT*dG*e[5mC]*eA*eG*e[5mC]*e[5mC]) [compound 206180],77
21,206181 (antisense eT*e[5mC]*eT*eT*e[5mC]*dA*d[5mC]*dA*dT*d[5mC]*dT*dG*dG*dG*d[5mC]*eT*e[5mC]*eA*eT*eG) [compound 206181],54

row,Substance,% INHIB (inhibition of human LIM domain kinase 1 mRNA levels) [%]
1,206182 (antisense eG*eG*eA*eA*eT*dT*d[5mC]*dT*dT*d[5mC]*dA*d[5mC]*dA*dT*d[5mC]*eT*eG*eG*eG*e[5mC]) [compound 206182],86
2,206183 (antisense eT*eG*eG*eA*eT*dG*dG*dA*dA*dT*dT*d[5mC]*dT*dT*d[5mC]*eA*e[5mC]*eA*eT*e[5mC]) [compound 206183],79
3,206184 (antisense eA*eT*eT*eT*e[5mC]*d[5mC]*dA*dA*dG*dA*dT*d[5mC]*d[5mC]*dG*dG*eT*e[5mC]*eT*e[5mC]*e[5mC]) [compound 206184],74
4,206185 (antisense eG*e[5mC]*e[5mC]*eA*eT*dT*dG*dA*dT*dT*dT*d[5mC]*d[5mC]*dA*dA*eG*eA*eT*e[5mC]*e[5mC]) [compound 206185],86
5,206186 (antisense eG*eG*e[5mC]*eG*eT*dG*d[5mC]*d[5mC]*dA*dT*dT*dG*dA*dT*dT*eT*e[5mC]*e[5mC]*eA*eA) [compound 206186],72
6,206187 (antisense eT*e[5mC]*eA*eG*e[5mC]*dT*dG*dG*dA*dG*d[5mC]*dA*dG*dG*d[5mC]*eG*eG*e[5mC]*eT*eG) [compound 206187],60
7,206188 (antisense eT*e[5mC]*eG*eA*eG*dG*dG*dT*d[5mC]*dA*dG*d[5mC]*dT*dG*dG*eA*eG*e[5mC]*eA*eG) [compound 206188],71
8,206189 (antisense eG*eT*eT*eT*e[5mC]*dT*dG*d[5mC]*d[5mC]*dG*dG*dG*d[5mC]*dA*dG*eA*eG*e[5mC]*eT*eG) [compound 206189],81
9,206190 (antisense eG*eA*e[5mC]*eA*eG*dG*dT*dT*dT*d[5mC]*dT*dG*d[5mC]*d[5mC]*dG*eG*eG*e[5mC]*eA*eG) [compound 206190],88
10,206191 (antisense e[5mC]*eT*e[5mC]*eA*eA*dG*dA*d[5mC]*dA*dG*dG*dT*dT*dT*d[5mC]*eT*eG*e[5mC]*e[5mC]*eG) [compound 206191],62
11,206192 (antisense eA*eG*e[5mC]*eT*e[5mC]*d[5mC]*dT*d[5mC]*dA*dA*dG*dA*d[5mC]*dA*dG*eG*eT*eT*eT*e[5mC]) [compound 206192],54
12,206193 (antisense eA*eG*eG*eT*e[5mC]*d[5mC]*dT*dT*dG*d[5mC]*dG*d[5mC]*dT*dG*dG*eG*eA*eG*eG*e[5mC]) [compound 206193],67
13,206194 (antisense eG*eA*e[5mC]*e[5mC]*e[5mC]*dA*dG*dG*dT*d[5mC]*d[5mC]*dT*dT*dG*d[5mC]*eG*e[5mC]*eT*eG*eG) [compound 206194],41
14,206195 (antisense eT*e[5mC]*eA*e[5mC]*eG*dG*dT*dG*dT*dG*dT*d[5mC]*dA*d[5mC]*d[5mC]*eT*eT*eG*eA*eT) [compound 206195],73
15,206196 (antisense eA*e[5mC]*e[5mC]*eT*eT*d[5mC]*dA*d[5mC]*d[5mC]*dT*d[5mC]*d[5mC]*dT*dT*dG*eA*eG*eG*eA*eA) [compound 206196],47
16,206197 (antisense eG*e[5mC]*eA*eT*e[5mC]*dG*d[5mC]*dA*dT*dG*dA*d[5mC]*d[5mC]*dT*dT*e[5mC]*eA*e[5mC]*e[5mC]*eT) [compound 206197],71
17,206198 (antisense eT*e[5mC]*e[5mC]*eA*eG*dG*d[5mC]*dA*dT*d[5mC]*dG*d[5mC]*dA*dT*dG*eA*e[5mC]*e[5mC]*eT*eT) [compound 206198],86
18,206199 (antisense eT*eG*eT*e[5mC]*e[5mC]*dA*dT*dG*d[5mC]*dT*d[5mC]*dT*dT*dG*dA*eT*eG*eA*eT*eG) [compound 206199],68
19,206200 (antisense e[5mC]*eT*eG*eG*e[5mC]*dT*dG*dT*d[5mC]*d[5mC]*dA*dT*dG*d[5mC]*dT*e[5mC]*eT*eT*eG*eA) [compound 206200],76
20,206201 (antisense eA*eG*eG*eT*eA*dG*dG*d[5mC]*d[5mC]*dA*dT*d[5mC]*d[5mC]*d[5mC]*dT*eG*eA*eT*eG*e[5mC]) [compound 206201],74
